Data reported in patent US20220169643A1, “ESTROGEN RECEPTOR DEGRADING PROTACS” (AstraZeneca AB, priority 2019, published 2022).

molecular target: T1, Estrogen Receptor Alpha Ligand binding domain (ER alpha-LBD (GST)) (Homo sapiens, UniProt P03372); test: ERα Binding Assay (LanthaScreen TR-FRET competition); conditions: competitive displacement of Fluormone ES2 tracer from recombinant human ER alpha-LBD (residues 307-554), 4 hours at room temperature
T1 construct: made in house
T1 sequence (P03372 307-554): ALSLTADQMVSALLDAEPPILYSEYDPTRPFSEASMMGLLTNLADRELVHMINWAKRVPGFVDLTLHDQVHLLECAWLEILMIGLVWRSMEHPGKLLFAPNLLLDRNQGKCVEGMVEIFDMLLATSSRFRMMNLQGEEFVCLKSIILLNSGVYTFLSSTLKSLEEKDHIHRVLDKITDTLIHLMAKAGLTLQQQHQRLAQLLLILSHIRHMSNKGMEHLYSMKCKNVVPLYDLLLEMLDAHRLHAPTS
Method: The ability of compounds to bind to isolated Estrogen Receptor Alpha Ligand binding domain (ER alpha-LBD (GST)) was assessed in competition assays using a LanthaScreen™ Time-Resolved Fluorescence Resonance Energy Transfer (TR-FRET) detection end-point. For the LanthaScreen TR-FRET endpoint, a suitable fluorophore (Fluormone ES2, ThermoFisher, Product code P2645) and recombinant human Estrogen Receptor alpha ligand binding domain, residues 307-554 (expressed and purified in-house) were used to measure compound binding. The assay principle is that ER alpha-LBD (GST) is added to a fluorescent ligand to form a receptor/fluorophore complex. A terbium-labelled anti-GST antibody (Product code PV3551) is used to indirectly label the receptor by binding to its GST tag, and competitive binding is detected by a test compound's ability to displace the fluorescent ligand, resulting in a loss of TR-FRET signal between the Th-anti-GST antibody and the tracer. The assay was performed as follows with all reagent additions carried out using the Beckman Coulter BioRAPTR FRD microfluidic workstation: • 1. Acoustic dispense 120 nL of the test compound into a black low volume 384 well assay plates. • 2. Prepare 1×ER alpha-LBD/Tb-anti-GST Ab in ES2 screening buffer and incubate for 15 minutes. • 3. Dispense 6 μL of the 1×[…]/Th-anti-GST Ab reagent into each well of the assay plate followed by 6 μL of Fluorophore reagent into each well of the assay plate • 4. Cover the assay plate to protect the reagents from light and evaporation, and incubate at room temperature for 4 hours. • 5. Excite at 337 nm and measure the fluorescent emission signal of each well at 490 nm and 520 nm using the BMG PheraSTAR.
Compounds were dosed directly from a compound source microplate containing serially diluted compound (4 wells containing 10 mM, […] and 10 nM final compound respectively) to an assay microplate using the Labcyte Echo 550. The Echo 550 is a liquid handler that uses acoustic technology to perform direct microplate-to-microplate transfers of DMSO compound solutions and the system can be programmed to transfer multiple small nL volumes of compound from the different source plate wells to give the desired serial dilution of compound in the assay which is then back-filled to normalise the DMSO concentration across the dilution range.
In total 120 nL of compound plus DMSO were added to each well and compounds were tested in a 12-point concentration response format over a final compound concentration range of 10, 2.917, 1.042, 0.2083, 0.1, 0.0292, 0.0104, 0.002083, 0.001, 0.0002917, 0.0001042, and 0.00001 μM respectively. TR-FRET dose response data obtained with each compound was exported into a suitable software package (such as Origin or Genedata) to perform curve fitting analysis. Competitive ER alpha binding was expressed as an IC50 value. This was determined by calculation of the concentration of compound that was required to give a 50% reduction in tracer compound binding to ER alpha-LBD.

Row | Structure (SMILES) | IC50 [nM]
1 | C[C@@H]1Cc2c([nH]c3ccccc23)[C@@H](c2cnc(N3CCC(CN4CCC(CN5CCN(c6ccc7c(c6)CN(C6CCC(=O)NC6=O)C7=O)CC5)CC4)CC3)nc2)N1CC(C)(C)F (stereo partly drawn) [Example 14, 3-{5-[4-({1-[(1-{5-[(1R,3R)-2-(2-fluoro-2-methylpropyl)-3-methyl-2,3,4,9-tetrahydro-1H-beta-carbolin-1-yl]pyrimidin-2-yl}piperidin-4-yl)methyl]piperidin-4-yl}methyl)piperazin-1-yl]-1-oxo-1,3-dihydro-2H-isoindol-2-yl}piperidine-2,6-dione] | 8.5
2 | C[C@@H]1Cc2c([nH]c3ccccc23)[C@@H](c2cnc(N3CCC(CCN4CCN(c5ccc6c(c5)CN(C5CCC(=O)NC5=O)C6=O)CC4)CC3)nc2)N1CC(F)(F)F (stereo partly drawn) [Example 15, 3-(5-{4-[2-(1-{5-[(1R,3R)-3-methyl-2-(2,2,2-trifluoroethyl)-2,3,4,9-tetrahydro-1H-beta-carbolin-1-yl]pyrimidin-2-yl}piperidin-4-yl)ethyl]piperazin-1-yl}-1-oxo-1,3-dihydro-2H-isoindol-2-yl)piperidine-2,6-dione] | 3.7
3 | C[C@@H]1Cc2c([nH]c3ccccc23)[C@@H](c2cnc(N3CCC(CN(C)C4CN(CC5CCN(c6ccc7c(c6)CN(C6CCC(=O)NC6=O)C7=O)CC5)C4)CC3)nc2)N1CC(C)(C)F (stereo partly drawn) [Example 16, 3-(5-{4-[(3-{[(1-{5-[(1R,3R)-2-(2-fluoro-2-methylpropyl)-3-methyl-2,3,4,9-tetrahydro-1H-beta-carbolin-1-yl]pyrimidin-2-yl}piperidin-4-yl)methyl](methyl)amino}azetidin-1-yl)methyl]piperidin-1-yl}-1-oxo-1,3-dihydro-2H-isoindol-2-yl)piperidine-2,6-dione] | 3
4 | C[C@@H]1Cc2c([nH]c3ccccc23)[C@@H](c2cnc(N3CCC4(CCN(CCC5CCN(c6ccc7c(c6)CN(C6CCC(=O)NC6=O)C7=O)CC5)CCO4)CC3)nc2)N1CC(C)(C)F (stereo partly drawn) [Example 17, 3-(5-{4-[2-(3-{5-[(1R,3R)-2-(2-fluoro-2-methylpropyl)-3-methyl-2,3,4,9-tetrahydro-1H-beta-carbolin-1-yl]pyrimidin-2-yl}-7-oxa-3,10-diazaspiro[5.6]dodecan-10-yl)ethyl]piperidin-1-yl}-1-oxo-1,3-dihydro-2H-isoindol-2-yl)piperidine-2,6-dione] | 13.8
5 | C[C@@H]1Cc2c([nH]c3ccccc23)[C@@H](c2cnc(N3CCC4(CCN(CC5CCN(c6ccc7c(c6)CN(C6CCC(=O)NC6=O)C7=O)CC5)CCO4)CC3)nc2)N1CC(C)(C)F (stereo partly drawn) [Example 18, 3-(5-{4-[(3-{5-[(1R,3R)-2-(2-fluoro-2-methylpropyl)-3-methyl-2,3,4,9-tetrahydro-1H-beta-carbolin-1-yl]pyrimidin-2-yl}-7-oxa-3,10-diazaspiro[5.6]dodecan-10-yl)methyl]piperidin-1-yl}-1-oxo-1,3-dihydro-2H-isoindol-2-yl)piperidine-2,6-dione] | 9.5
6 | C[C@@H]1Cc2c([nH]c3ccccc23)[C@@H](c2cnc(N3CCC(CN4CCOC5(CC4)CCN(c4ccc6c(c4)CN(C4CCC(=O)NC4=O)C6=O)CC5)CC3)nc2)N1CC(C)(C)F (stereo partly drawn) [Example 19, 3-(5-{10-[(1-{5-[(1R,3R)-2-(2-fluoro-2-methylpropyl)-3-methyl-2,3,4,9-tetrahydro-1H-beta-carbolin-1-yl]pyrimidin-2-yl}piperidin-4-yl)methyl]-7-oxa-3,10-diazaspiro[5.6]dodecan-3-yl}-1-oxo-1,3-dihydro-2H-isoindol-2-yl)piperidine-2,6-dione] | 5.3
7 | C[C@@H]1Cc2c([nH]c3ccccc23)[C@@H](c2cnc(N3CCC(CCN4CCOC5(CC4)CCN(c4ccc6c(c4)CN(C4CCC(=O)NC4=O)C6=O)CC5)CC3)nc2)N1CC(C)(C)F (stereo partly drawn) [Example 20, 3-(5-{10-[2-(1-{5-[(1R,3R)-2-(2-fluoro-2-methylpropyl)-3-methyl-2,3,4,9-tetrahydro-1H-beta-carbolin-1-yl]pyrimidin-2-yl}piperidin-4-yl)ethyl]-7-oxa-3,10-diazaspiro[5.6]dodecan-3-yl}-1-oxo-1,3-dihydro-2H-isoindol-2-yl)piperidine-2,6-dione] | 2
8 | C[C@@H]1Cc2c([nH]c3ccccc23)[C@@H](c2ccc(N3CCC(CN4CCC5(CC4)CCN(c4ccc6c(c4)CN(C4CCC(=O)NC4=O)C6=O)CC5)CC3)cn2)N1CC(C)(C)F (stereo partly drawn) [Example 21, 3-(5-{9-[(1-{6-[(1S,3R)-2-(2-fluoro-2-methylpropyl)-3-methyl-2,3,4,9-tetrahydro-1H-beta-carbolin-1-yl]pyridin-3-yl}piperidin-4-yl)methyl]-3,9-diazaspiro[5.5]undecan-3-yl}-1-oxo-1,3-dihydro-2H-isoindol-2-yl)piperidine-2,6-dione] | 7.6
9 | C[C@@H]1Cc2c([nH]c3ccccc23)[C@@H](c2cnc(N3CCC4(CCN(CCN5CCN(c6ccc7c(c6)CN(C6CCC(=O)NC6=O)C7=O)CC5=O)CC4)CC3)nc2)N1CC(C)(C)F (stereo partly drawn) [Example 26, 3-(5-{4-[2-(9-{5-[(1R,3R)-2-(2-fluoro-2-methylpropyl)-3-methyl-2,3,4,9-tetrahydro-1H-beta-carbolin-1-yl]pyrimidin-2-yl}-3,9-diazaspiro[5.5]undecan-3-yl)ethyl]-3-oxopiperazin-1-yl}-1-oxo-1,3-dihydro-2H-isoindol-2-yl)piperidine-2,6-dione] | 18
10 | C[C@@H]1Cc2c([nH]c3ccccc23)[C@@H](c2cnc(N3CCC(CCCN4CCN(c5ccc6c(c5)CN(C5CCC(=O)NC5=O)C6=O)CC4)CC3)nc2)N1CC(F)(F)F (stereo partly drawn) [Example 34, 3-(5-{4-[3-(1-{5-[(1R,3R)-3-methyl-2-(2,2,2-trifluoroethyl)-2,3,4,9-tetrahydro-1H-beta-carbolin-1-yl]pyrimidin-2-yl}piperidin-4-yl)propyl]piperazin-1-yl}-1-oxo-1,3-dihydro-2H-isoindol-2-yl)piperidine-2,6-dione] | 7.3
11 | C[C@@H]1Cc2c([nH]c3ccccc23)[C@@H](c2cnc(N3CCC(CN4CCN(c5ccc6c(c5)CN(C5CCC(=O)NC5=O)C6=O)CC4)CC3)nc2)N1CC(F)(F)F (stereo partly drawn) [Example 35, 3-(5-{4-[(1-{5-[(1R,3R)-3-methyl-2-(2,2,2-trifluoroethyl)-2,3,4,9-tetrahydro-1H-beta-carbolin-1-yl]pyrimidin-2-yl}piperidin-4-yl)methyl]piperazin-1-yl}-1-oxo-1,3-dihydro-2H-isoindol-2-yl)piperidine-2,6-dione] | 6.9
12 | C[C@@H]1Cc2c([nH]c3ccccc23)[C@@H](c2cnc(N3CC(CCN4CCN(c5ccc6c(c5)CN(C5CCC(=O)NC5=O)C6=O)CC4)C3)nc2)N1CC(C)(C)F (stereo partly drawn) [Example 37, 3-(5-{4-[2-(1-{5-[(1R,3R)-2-(2-fluoro-2-methylpropyl)-3-methyl-2,3,4,9-tetrahydro-1H-beta-carbolin-1-yl]pyrimidin-2-yl}azetidin-3-yl)ethyl]piperazin-1-yl}-1-oxo-1,3-dihydro-2H-isoindol-2-yl)piperidine-2,6-dione] | 3.3
13 | C[C@@H]1Cc2c([nH]c3ccccc23)[C@@H](c2cnc(N3CCC(OCCCN4CCN(c5ccc6c(c5)CN(C5CCC(=O)NC5=O)C6=O)CC4)CC3)nc2)N1CC(C)(C)F (stereo partly drawn) [Example 38, 3-[5-(4-{3-[(1-{5-[(1R,3R)-2-(2-fluoro-2-methylpropyl)-3-methyl-2,3,4,9-tetrahydro-1H-beta-carbolin-1-yl]pyrimidin-2-yl}piperidin-4-yl)oxy]propyl}piperazin-1-yl)-1-oxo-1,3-dihydro-2H-isoindol-2-yl]piperidine-2,6-dione] | 3.6
